Assay results published in patent US7951814B2, “Quinazolinedione derivatives as TRPA1 modulators” (Glenmark Pharmaceuticals, S.A., priority 2008, dated 2011).

Target: T1, Human TRPA1 expressing CHO cells (Homo sapiens, UniProt O75762)
T1 construct: expressed in transfected cells; host or cells: CHO cells (under G-418 selection)
Assay: 45Calcium uptake assay: inhibition of AITC induced cellular uptake of radioactive calcium
Type: cell-based
Conditions: AITC 30 μM, human TRPA1 CHO cells; for inhibition at 1 µM: 1.0 μM test compound, read-out: Percentage inhibition at 1.0 μM; for inhibition at 10 µM: 10.0 μM test compound, read-out: Percentage inhibition at 10.0 μM; for IC50: read-out: IC50 value (range)
Description: The illustrative examples of the present invention are screened for TRPA1 activity according to a modified procedure described in (a) Tóth, A. et al. Life Sciences (2003), 73, 487-498. ([…]. et al. Proc. Natl. Acad. Sci. U.S.A., (2007), 104, 13525-13530. The screening of the compounds can be carried out by other methods and procedures known to persons skilled in the art. Screening for TRPA1 Antagonist Using the ^45Calcium Uptake Assay The inhibition of TRPA1 receptor activation was measured as inhibition of allyl isothiocyanate (AITC) induced cellular uptake of radioactive calcium. […] Final concentration of DMSO in the reaction was 0.5% (v/v). […] Cells were seeded 24 h prior to the assay in 96 well plates so as to get 50,000 cells per well on the day of experiment. Cells were treated with test compounds for 10 min followed by addition of AITC at a final concentration of 30 μM and 5 μCi/ml ^45Ca^+2 for 3 min. […] Radioactivity in the lysate was measured in Packard Top count after addition of liquid scintillant. Concentration response curves were plotted as a % of maximal response obtained in the absence of test antagonist. IC50 value was calculated from concentration response curve by nonlinear regression analysis using GraphPad PRISM software.

T1 sequence (O75762 whole entry): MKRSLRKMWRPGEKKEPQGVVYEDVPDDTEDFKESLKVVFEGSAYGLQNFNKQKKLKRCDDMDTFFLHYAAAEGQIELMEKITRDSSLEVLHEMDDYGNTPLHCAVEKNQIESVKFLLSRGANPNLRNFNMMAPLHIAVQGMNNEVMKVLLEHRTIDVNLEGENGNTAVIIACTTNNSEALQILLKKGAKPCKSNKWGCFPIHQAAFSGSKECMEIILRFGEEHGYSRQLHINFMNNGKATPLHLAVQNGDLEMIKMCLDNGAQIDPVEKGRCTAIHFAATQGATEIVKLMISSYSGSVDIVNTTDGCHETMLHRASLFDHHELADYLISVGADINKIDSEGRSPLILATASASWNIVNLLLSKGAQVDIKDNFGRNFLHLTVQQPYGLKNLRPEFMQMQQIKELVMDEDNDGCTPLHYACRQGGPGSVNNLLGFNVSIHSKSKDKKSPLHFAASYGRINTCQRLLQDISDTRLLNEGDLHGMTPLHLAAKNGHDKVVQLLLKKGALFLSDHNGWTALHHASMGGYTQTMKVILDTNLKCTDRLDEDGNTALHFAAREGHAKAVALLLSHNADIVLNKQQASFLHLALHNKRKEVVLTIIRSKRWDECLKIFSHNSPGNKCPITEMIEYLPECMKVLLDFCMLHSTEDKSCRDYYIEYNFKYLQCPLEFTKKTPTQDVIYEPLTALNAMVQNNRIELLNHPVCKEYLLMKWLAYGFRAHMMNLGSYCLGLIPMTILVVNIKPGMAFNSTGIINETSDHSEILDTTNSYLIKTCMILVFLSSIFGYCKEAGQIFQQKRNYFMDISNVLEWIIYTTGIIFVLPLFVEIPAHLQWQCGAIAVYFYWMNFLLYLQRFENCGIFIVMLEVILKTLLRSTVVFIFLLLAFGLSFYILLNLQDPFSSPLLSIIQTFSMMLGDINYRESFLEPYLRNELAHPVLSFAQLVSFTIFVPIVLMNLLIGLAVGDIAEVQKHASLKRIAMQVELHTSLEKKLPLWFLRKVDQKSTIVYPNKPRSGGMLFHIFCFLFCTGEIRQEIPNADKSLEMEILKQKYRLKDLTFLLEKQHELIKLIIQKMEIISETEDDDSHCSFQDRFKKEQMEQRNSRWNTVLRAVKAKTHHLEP

| inhibition at 1 µM | inhibition at 10 µM | IC50 | SMILES |
| --- | --- | --- | --- |
| 53.7% | 66.3% |  | Cn1c(=O)c2c(CC(=O)Nc3nc(-c4ccc(F)c(F)c4)cs3)cccc2n(C)c1=O [Example 32, N1-[4-(3,4-Difluorophenyl)-1,3-thiazol-2-yl]-2-(1,3-dimethyl-2,4-dioxo-1,2,3,4-tetrahydro-5-quinazolinyl)acetamide] |
| 50.4% | 79.8% |  | Cn1c(=O)c2c(CC(=O)Nc3nc(-c4c(F)cccc4F)cs3)cccc2n(C)c1=O [Example 33, N1-[4-(2,6-Difluorophenyl)-1,3-thiazol-2-yl]-2-(1,3-dimethyl-2,4-dioxo-1,2,3,4-tetrahydro-5-quinazolinyl)acetamide] |
| 15.8% | 85% |  | Cn1c(=O)c2c(CC(=O)Nc3nc(-c4cc(F)cc(F)c4)cs3)cccc2n(C)c1=O [Example 34, N1-[4-(3,5-Difluorophenyl)-1,3-thiazol-2-yl]-2-(1,3-dimethyl-2,4-dioxo-1,2,3,4-tetrahydro-5-quinazolinyl)acetamide] |
| 76.8% | 95.8% | 50.1 to 100 nM | Cn1c(=O)c2c(CC(=O)Nc3nc(-c4cccc(F)c4F)cs3)cccc2n(C)c1=O [Example 35, N1-[4-(2,3-Difluorophenyl)-1,3-thiazol-2-yl]-2-(1,3-dimethyl-2,4-dioxo-1,2,3,4-tetrahydro-5-quinazolinyl)acetamide] |
| 95.1% | 100% | < 50 nM | Cn1c(=O)c2c(CC(=O)Nc3nc(-c4ccc(C(F)(F)F)cc4F)cs3)cccc2n(C)c1=O [Example 36, N1-[4-(2-Fluoro-4-trifluoromethylphenyl)-1,3-thiazol-2-yl]-2-(1,3-dimethyl-2,4-1,2,3,4-tetrahydro-5-quinazolinyl)acetamide] |
| 98.5% | 98.7% | < 50 nM | Cn1c(=O)c2c(CC(=O)Nc3nc(-c4ccc(F)c(C(F)(F)F)c4)cs3)cccc2n(C)c1=O [Example 38, N1-[4-(4-Fluoro-3-trifluoromethylphenyl)-1,3-thiazol-2-yl]-2-(1,3-dimethyl-2,4-dioxo-1,2,3,4-tetrahydro-5-quinazolinyl)acetamide] |
| 51.6% | 90.3% |  | Cn1c(=O)c2c(CC(=O)Nc3nc(-c4ccc(F)cc4C(F)(F)F)cs3)cccc2n(C)c1=O [Example 39, N1-[4-(4-Fluoro-2-trifluoromethylphenyl)-1,3-thiazol-2-yl]-2-(1,3-dimethyl-2,4-dioxo-1,2,3,4-tetrahydro-5-quinazolinyl)acetamide] |
| 82.7% | 98.7% | > 100 nM | Cn1c(=O)c2c(CC(=O)Nc3nc(-c4cc(C(F)(F)F)ccc4F)cs3)cccc2n(C)c1=O [Example 40, N1-[4-(2-Fluoro-5-trifluoromethylphenyl)-1,3-thiazol-2-yl]-2-(1,3-dimethyl-2,4-dioxo-1,2,3,4-tetrahydro-5-quinazolinyl)acetamide] |
| 74.4% | 99.7% | < 50 nM | Cn1c(=O)c2c(CC(=O)Nc3nc(-c4ccc(OC(F)(F)F)c(F)c4)cs3)cccc2n(C)c1=O [Example 41] |
| 98.3% | 99% | 50.1 to 100 nM | Cn1c(=O)c2c(CC(=O)Nc3nc(-c4ccc(F)c(OC(F)(F)F)c4)cs3)cccc2n(C)c1=O [Example 42] |
| 5.71% | 9.15% |  | COc1ccc(-c2csc(NC(=O)Cc3cccc4c3c(=O)n(C)c(=O)n4C)n2)cc1F [Example 43] |
| 46.2% | 99.2% |  | Cn1c(=O)c2c(CC(=O)Nc3nc(-c4ccc(OC(F)F)c(F)c4)cs3)cccc2n(C)c1=O [Example 44, N1-[4-(4-Difluoromethoxyl-3-fluorophenyl)-1,3-thiazol-2-yl]-2-(1,3-dimethyl-2,4-dioxo-1,2,3,4-tetrahydro-5-quinazolinyl)acetamide] |
| 82.1% | 95.5% | > 100 nM | Cn1c(=O)c2c(CC(=O)Nc3nc(-c4ccc(Cl)cc4Cl)cs3)cccc2n(C)c1=O [Example 45, N1-[4-(2,4-Dichlorophenyl)-1,3-thiazol-2yl]-2-(1,3-dimethyl-2,4-dioxo-1,2,3,4-tetrahydro-5-quinazolinyl)acetamide] |
| 84.3% | 87.9% | > 100 nM | Cn1c(=O)c2c(CC(=O)Nc3nc(-c4cc(Cl)ccc4Cl)cs3)cccc2n(C)c1=O [Example 46, N1-[4-(2,5-Dichlorophenyl)-1,3-thiazol-2-yl]-2-(1,3-dimethyl-2,4-dioxo-1,2,3,4-tetrahydro-5-quinazolinyl)acetamide] |
| 98.4% | 99.2% | 50.1 to 100 nM | Cn1c(=O)c2c(CC(=O)Nc3nc(-c4ccc(Cl)c(Cl)c4)cs3)cccc2n(C)c1=O [Example 47, N1-[4-(3,4-Dichlorophenyl)-1,3-thiazol-2yl]-2-(1,3-dimethyl-2,4-dioxo-1,2,3,4-tetrahydro-5-quinazolinyl)acetamide] |
| 96.3% | 100% | 50.1 to 100 nM | Cn1c(=O)c2c(CC(=O)Nc3nc(-c4cc(Cl)cc(Cl)c4)cs3)cccc2n(C)c1=O [Example 48, N1-[4-(3,5-Dichlorophenyl)-1,3-thiazol-2-yl]-2-(1,3-dimethyl-2,4-dioxo-1,2,3,4-tetrahydro-5-quinazolinyl)acetamide] |
| 98.6% | 99% | 50.1 to 100 nM | Cn1c(=O)c2c(CC(=O)Nc3nc(-c4ccc(F)c(Cl)c4)cs3)cccc2n(C)c1=O [Example 49, N1-[4-(3-Chloro-4-fluorophenyl)-1,3-thiazol-2-yl]-2-(1,3-dimethyl-2,4-dioxo-1,2,3,4-tetrahydro-5-quinazolinyl)acetamide] |
| 95.3% | 98.9% | 50.1 to 100 nM | Cn1c(=O)c2c(CC(=O)Nc3nc(-c4cccc(Cl)c4F)cs3)cccc2n(C)c1=O [Example 50, N1-[4-(3-Chloro-2-fluorophenyl)-1,3-thiazol-2-yl]-2-(1,3-dimethyl-2,4-dioxo-1,2,3,4-tetrahydro-5-quinazolinyl)acetamide] |
| 97.5% | 99.3% | > 100 nM | Cn1c(=O)c2c(CC(=O)Nc3nc(-c4ccc(Cl)cc4F)cs3)cccc2n(C)c1=O [Example 51, N1-[4-(4-Chloro-2-fluorophenyl)-1,3-thiazol-2-yl]-2-(1,3-dimethyl-2,4-dioxo-1,2,3,4-tetrahydro-5-quinazolinyl)acetamide] |
| 92.5% | 95.3% | > 100 nM | Cn1c(=O)c2c(CC(=O)Nc3nc(-c4cc(Cl)ccc4F)cs3)cccc2n(C)c1=O [Example 52, N1-[4-(5-Chloro-2-fluorophenyl)-1,3-thiazol-2-yl]-2-(1,3-dimethyl-2,4-dioxo-1,2,3,4-tetrahydro-5-quinazolinyl)acetamide] |
| 33.1% | 88.6% |  | Cn1c(=O)c2c(CC(=O)Nc3nc(-c4c(F)cccc4Cl)cs3)cccc2n(C)c1=O [Example 53, N1-[4-(2-Chloro-6-fluorophenyl)-1,3-thiazol-2-yl]-2-(1,3-dimethyl-2,4-dioxo-1,2,3,4-tetrahydro-5-quinazolinyl)acetamide] |
| 74.1% | 99.8% | < 50 nM | Cn1c(=O)c2c(CC(=O)Nc3nc(-c4ccc(F)cc4Cl)cs3)cccc2n(C)c1=O [Example 54] |
| 100% | 100% | < 50 nM | Cn1c(=O)c2c(CC(=O)Nc3nc(-c4ccc(Cl)c(C(F)(F)F)c4)cs3)cccc2n(C)c1=O [Example 55, N1-[4-(4-Chloro, 3-trifluoromethylphenyl)-1,3-thiazol-2-yl]-2-(1,3-dimethyl-2,4-dioxo-1,2,3,4-tetrahydro-5-quinazolinyl)acetamide] |
| 85% | 99.8% | > 100 nM | Cn1c(=O)c2c(CC(=O)Nc3nc(-c4cc(C(F)(F)F)ccc4Cl)cs3)cccc2n(C)c1=O [Example 56, N1-[4-(2-Chloro-5-trifuoromethylphenyl)-1,3-thiazol-2-yl]-2-(1,3-dimethyl-2,4-dioxo-1,2,3,4-tetrahydro-5-quinazolinyl)propanamide] |
| 97.8% | 99.7% | < 50 nM | Cn1c(=O)c2c(CC(=O)Nc3nc(-c4ccc(OC(F)F)c(Cl)c4)cs3)cccc2n(C)c1=O [Example 57, N1-{4-[3-Chloro-4-(difluoromethoxy)phenyl]-1,3-thiazol-2-yl}-2-(1,3-dimethyl-2,4-dioxo-1,2,3,4-tetrahydro-5-quinazolinyl)acetamide] |
| 94.2% | 96.7% | > 100 nM | Cc1cc(-c2csc(NC(=O)Cc3cccc4c3c(=O)n(C)c(=O)n4C)n2)ccc1Cl [Example 58, N1-[4-(4-Chloro-3-methylphenyl)-1,3-thiazol-2yl]-2-(1,3-dimethyl-2,4-dioxo-1,2,3,4-tetrahydro-5-quinazolinyl)acetamide] |
